Measurements reported in patent US20240360151A1 (SANOFI, priority 2023, published 2024).

What was measured:
NLRP3 inflammasome = molecular target: T1, NLRP3 inflammasome (Homo sapiens, UniProt Q96P20); assay: IL-1β secretion assay (NLRP3 IC50) in LPS-primed, nigericin-activated THP-1 cells, HTRF; type: cell-based; settings: monocytic THP-1 cells; LPS 10 ng/mL 3 h priming, then compound + nigericin 10 μM 2 h; relative IC50, 10 concentrations, geometric mean
T1 construct: endogenous in cells; host or cells: THP-1 monocytic cells
Summary of the method: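 THP-1 cells primed with LPS 10 ng/mL for 3 h at 37° C., then compound (10-point 1:3 dilution, 0.1% DMSO) added with 10 μM nigericin for 2 h. Supernatant IL-1β measured by HTRF; relative IC50 from a 4-parameter logistic fit, reported as geometric mean.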

[1] = system: NF-kB pathway (TNF-α secretion by THP-1 cells); assay: TNF-α secretion assay in LPS-stimulated THP-1 cells, Lumit immunoassay; type: cell-based, human; settings: Homo sapiens, THP-1, 3 h, monocytic THP-1 cells, LPS 10 ng/mL, relative IC50, 10 concentrations, geometric mean
Summary of the method: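 THP-1 monocytes in RPMI with 5% FBS were treated with compound, then stimulated with 10 ng/mL LPS for 3 h. Secreted TNF-α was measured in-plate by Lumit immunoassay. Relative IC50 came from 10-concentration curves fitted with a 4-parameter logistic model, reported as geometric mean.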

T1 sequence (Q96P20 whole entry): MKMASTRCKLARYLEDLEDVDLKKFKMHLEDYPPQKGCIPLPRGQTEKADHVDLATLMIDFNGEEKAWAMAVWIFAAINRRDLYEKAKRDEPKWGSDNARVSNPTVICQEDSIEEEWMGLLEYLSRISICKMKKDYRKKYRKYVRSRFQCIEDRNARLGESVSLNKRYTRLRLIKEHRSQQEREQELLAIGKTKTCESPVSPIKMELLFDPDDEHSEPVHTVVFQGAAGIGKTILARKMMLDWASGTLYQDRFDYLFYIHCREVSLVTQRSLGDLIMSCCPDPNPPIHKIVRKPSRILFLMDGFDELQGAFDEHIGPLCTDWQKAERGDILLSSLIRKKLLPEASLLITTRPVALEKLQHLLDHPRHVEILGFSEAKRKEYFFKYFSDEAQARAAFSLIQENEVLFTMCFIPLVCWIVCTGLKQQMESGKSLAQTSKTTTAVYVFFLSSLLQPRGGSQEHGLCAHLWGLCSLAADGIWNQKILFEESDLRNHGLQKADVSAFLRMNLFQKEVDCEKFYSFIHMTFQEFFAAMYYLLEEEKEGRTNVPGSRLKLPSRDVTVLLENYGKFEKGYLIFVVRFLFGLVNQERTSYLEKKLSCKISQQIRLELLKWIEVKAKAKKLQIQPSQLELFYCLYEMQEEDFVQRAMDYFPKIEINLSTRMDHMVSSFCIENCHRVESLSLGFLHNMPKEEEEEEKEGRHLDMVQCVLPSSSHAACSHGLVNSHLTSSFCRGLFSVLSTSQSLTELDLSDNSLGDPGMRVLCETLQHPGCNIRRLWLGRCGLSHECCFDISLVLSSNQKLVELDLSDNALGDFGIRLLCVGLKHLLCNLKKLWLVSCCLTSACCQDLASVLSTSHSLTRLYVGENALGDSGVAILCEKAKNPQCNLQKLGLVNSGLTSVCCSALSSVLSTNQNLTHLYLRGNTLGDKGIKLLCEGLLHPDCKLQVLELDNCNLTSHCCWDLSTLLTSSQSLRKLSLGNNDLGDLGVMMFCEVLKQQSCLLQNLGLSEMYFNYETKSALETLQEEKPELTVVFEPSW

IC50 (NLRP3 inflammasome)	IC50 [1]	SMILES
30 nM	> 10000 nM	Cc1cc(C(F)(F)F)cc(O)c1-c1ccc(N2CCO[C@H](C)C2)nn1 [Example 258, 3-methyl-2-[6-[(2R)-2-methylmorpholin-4-yl]pyridazin-3-yl]-5-(trifluoromethyl)phenol]
67 nM	> 10000 nM	Cc1cc(C(F)(F)F)cc(O)c1-c1ccc(N2CCO[C@@H](C)C2)nn1 [Example 259, 3-methyl-2-[6-[(2S)-2-methylmorpholin-4-yl]pyridazin-3-yl]-5-(trifluoromethyl)phenol]
73 nM	> 10000 nM	Cc1cc(C(F)(F)F)cc(O)c1-c1ccc(N2CCO[C@@H](CO)C2)nn1 [Example 266, 2-[6-[(2R)-2-(hydroxymethyl)morpholin-4-yl]pyridazin-3-yl]-3-methyl-5-(trifluoromethyl)phenol]
185 nM	> 10000 nM	CC(=O)NC[C@@H]1CN(c2ccc(-c3c(C)cc(Cl)cc3O)nn2)CCO1 [Example 267, N-[[(2R)-4-[6-(4-chloro-2-hydroxy-6-methyl-phenyl)pyridazin-3-yl]morpholin-2-yl]methyl]acetamide]
263 nM	> 10000 nM	CN1CC[C@@H]2OCCN(c3cc(C(F)F)c(-c4ccc(C(F)(F)F)cc4O)nn3)[C@@H]2C1 [Example 268, 2-[6-[(4aR,8aS)-6-methyl-3,4a,5,7,8,8a-hexahydro-2H-pyrido[4,3-b][1,4]oxazin-4-yl]-4-(difluoromethyl)pyridazin-3-yl]-5-(trifluoromethyl)phenol]
2340 nM	6580 nM	Cc1cc(C)c(-c2ccc(N3CCCc4ccccc43)nn2)c(O)c1 [Example 272, 2-[6-(3,4-dihydro-2H-quinolin-1-yl)pyridazin-3-yl]-3,5-dimethyl-phenol]
456 nM	> 10000 nM	Cc1cc(C(F)(F)F)cc(O)c1-c1ccc(N2CCCC(CO)C2=O)nn1 (stereo not drawn) [Example 273, 3-(hydroxymethyl)-1-[6-[2-hydroxy-6-methyl-4-(trifluoromethyl)phenyl]pyridazin-3-yl]piperidin-2-one]
171 nM	> 10000 nM	Cc1cc(C(C)C)cc(O)c1-c1ccc(N2CCO[C@H](CO)C2)nn1 [Example 274, 2-[6-[(2S)-2-(hydroxymethyl)morpholin-4-yl]pyridazin-3-yl]-5-isopropyl-3-methyl-phenol]
127 nM	> 10000 nM	CC(=O)NC[C@H]1CN(c2ccc(-c3c(C)cc(C(F)(F)F)cc3O)nn2)CCO1 [Example 275, N-[[(2S)-4-[6-[2-hydroxy-6-methyl-4-(trifluoromethyl)phenyl]pyridazin-3-yl]morpholin-2-yl]methyl]acetamide]
515 nM	> 10000 nM	Cc1cc(C(F)(F)F)cc(O)c1-c1ccc(N2CCO[C@@H](CNC(=O)C(C)C)C2)nn1 [Example 276, N-[[(2S)-4-[6-[2-hydroxy-6-methyl-4-(trifluoromethyl)phenyl]pyridazin-3-yl]morpholin-2-yl]methyl]-2-methylpropanamide]
277 nM	> 10000 nM	Cc1cc(Cl)cc(O)c1-c1ccc(N2CCO[C@H](CNC(=O)C(C)C)C2)nn1 [Example 279, N-[[(2R)-4-[6-(4-chloro-2-hydroxy-6-methylphenyl)pyridazin-3-yl]morpholin-2-yl]methyl]-2-methylpropanamide]
76 nM	> 10000 nM	CC(=O)NC[C@H]1CN(c2ccc(-c3c(C)cc(Cl)cc3O)nn2)CCO1 [Example 280, N-[[(2S)-4-[6-(4-chloro-2-hydroxy-6-methylphenyl)pyridazin-3-yl]morpholin-2-yl]methyl]acetamide]
65 nM	> 10000 nM	Cc1cc(Cl)cc(O)c1-c1ccc(N2CCO[C@@H](CNC(=O)C(C)C)C2)nn1 [Example 285, N-[[(2S)-4-[6-(4-chloro-2-hydroxy-6-methylphenyl)pyridazin-3-yl]morpholin-2-yl]methyl]-2-methylpropanamide]
1 nM	> 10000 nM	Cc1cc(C)c(-c2cc(C(F)F)c(N3CCO[C@@H]4CCN(C)C[C@@H]43)nn2)c(O)c1 [Example 291, 2-[6-[(4aS,8aR)-6-methyl-3,4a,5,7,8,8a-hexahydro-2H-pyrido[4,3-b][1,4]oxazin-4-yl]-5-(difluoromethyl)pyridazin-3-yl]-3,5-dimethyl-phenol]
2 nM	> 10000 nM	Cc1ccc(-c2nnc(N3CCO[C@@H]4CCN(C)C[C@@H]43)cc2C(F)F)c(O)c1 [Example 295, 2-[6-[(4aS,8aR)-6-methyl-3,4a,5,7,8,8a-hexahydro-2H-pyrido[4,3-b][1,4]oxazin-4-yl]-4-(difluoromethyl)pyridazin-3-yl]-5-methyl-phenol]
28 nM	> 10000 nM	Cc1cc(C(F)(F)F)cc(O)c1-c1ccc(N2C[C@@H](CO)O[C@H](C)C2)nn1 [Example 296, 2-[6-[(2S,6R)-2-(hydroxymethyl)-6-methyl-morpholin-4-yl]pyridazin-3-yl]-3-methyl-5-(trifluoromethyl)phenol]
11 nM	> 10000 nM	Cc1cc(C(F)(F)F)cc(O)c1-c1ccc(N2C[C@@H](CO)O[C@@H](C)C2)nn1 [Example 297, 2-[6-[(2S,6S)-2-(hydroxymethyl)-6-methyl-morpholin-4-yl]pyridazin-3-yl]-3-methyl-5-(trifluoromethyl)phenol]
3 nM	> 10000 nM	CN1CC[C@H]2OCCN(c3cc(C(F)F)c(-c4ccc(C(F)(F)F)cc4O)nn3)[C@H]2C1 [Example 298, 2-[6-[(4aS,8aR)-6-methyl-3,4a,5,7,8,8a-hexahydro-2H-pyrido[4,3-b][1,4]oxazin-4-yl]-4-(difluoromethyl)pyridazin-3-yl]-5-(trifluoromethyl)phenol]
15 nM	> 10000 nM	Cc1cccc(O)c1-c1ccc(N2CCO[C@H]3CCN(C)C[C@H]32)nn1 [Example 299, 2-[6-[(4aR,8aS)-6-methyl-3,4a,5,7,8,8a-hexahydro-2H-pyrido[4,3-b][1,4]oxazin-4-yl]pyridazin-3-yl]-3-methyl-phenol]
13 nM	> 10000 nM	Cc1cc(C(F)(F)F)cc(O)c1-c1ccc(N2C[C@H](CO)O[C@H](C)C2)nn1 [Example 302, 2-[6-[(2R,6R)-2-(hydroxymethyl)-6-methyl-morpholin-4-yl]pyridazin-3-yl]-3-methyl-5-(trifluoromethyl)phenol]
9 nM	> 10000 nM	Cc1cc(Cl)cc(O)c1-c1ccc(N2CCO[C@H]3CCNC[C@H]32)nn1 [Example 308, 2-[6-[(4aR,8aS)-2,3,4a,5,6,7,8,8a-octahydropyrido[4,3-b][1,4]oxazin-4-yl]pyridazin-3-yl]-5-chloro-3-methyl-phenol]
2 nM	> 10000 nM	Cc1cc(C)c(-c2ccc(N3CCO[C@@H]4CCN(C)C[C@@H]43)nn2)c(O)c1 [Example 311, 2-[6-[(4aS,8aR)-6-methyl-3,4a,5,7,8,8a-hexahydro-2H-pyrido[4,3-b][1,4]oxazin-4-yl]pyridazin-3-yl]-3,5-dimethyl-phenol]
18 nM	> 10000 nM	Cc1cc(C)c(-c2ccc(N3CCO[C@H]4CCNC[C@H]43)nn2)c(O)c1 [Example 314, 2-[6-[(4aR,8aS)-2,3,4a,5,6,7,8,8a-octahydropyrido[4,3-b][1,4]oxazin-4-yl]pyridazin-3-yl]-3,5-dimethyl-phenol]
80 nM	> 10000 nM	Cc1ccc(-c2nnc(N3CCO[C@@H]4CCNC[C@@H]43)cc2C(F)F)c(O)c1 [Example 322, 2-[6-[(4aS,8aR)-2,3,4a,5,6,7,8,8a-octahydropyrido[4,3-b][1,4]oxazin-4-yl]-4-(difluoromethyl)pyridazin-3-yl]-5-methyl-phenol]
3 nM	> 10000 nM	CCN1CC[C@H]2OCCN(c3cc(C(F)F)c(-c4ccc(C)cc4O)nn3)[C@H]2C1 [Example 323, 2-[6-[(4aS,8aR)-6-ethyl-3,4a,5,7,8,8a-hexahydro-2H-pyrido[4,3-b][1,4]oxazin-4-yl]-4-(difluoromethyl)pyridazin-3-yl]-5-methyl-phenol]
56 nM	> 10000 nM	Cc1cc(N2CCO[C@H](CO)C2)nnc1-c1ccc2c(c1O)CCC2 [Example 324, 5-[6-[(2S)-2-(hydroxymethyl)morpholin-4-yl]-4-methyl-pyridazin-3-yl]indan-4-ol]
46 nM	> 10000 nM	Cc1cc(Cl)cc(O)c1-c1ccc(N2CCO[C@@H](CF)C2)nn1 [Example 338, 5-chloro-2-[6-[(2R)-2-(fluoromethyl)morpholin-4-yl]pyridazin-3-yl]-3-methyl-phenol]
1 nM	> 10000 nM	CN1CC[C@H]2OCCN(c3cc(C(F)F)c(-c4ccc(Cl)cc4O)nn3)[C@H]2C1 [Example 350, 2-[6-[(4aS,8aR)-6-methyl-3,4a,5,7,8,8a-hexahydro-2H-pyrido[4,3-b][1,4]oxazin-4-yl]-4-(difluoromethyl)pyridazin-3-yl]-5-chloro-phenol]
29 nM	> 10000 nM	Cc1ccc(F)c(O)c1-c1ccc(N2CCO[C@@H]3CCN(C)C[C@@H]32)nn1 [Example 353, 2-[6-[(4aS,8aR)-6-methyl-3,4a,5,7,8,8a-hexahydro-2H-pyrido[4,3-b][1,4]oxazin-4-yl]pyridazin-3-yl]-6-fluoro-3-methyl-phenol]
20 nM	> 10000 nM	Cc1cccc(O)c1-c1ccc(N2CCO[C@@H]3CCN(C)C[C@@H]32)nn1 [Example 354, 2-[6-[(4aS,8aR)-6-methyl-3,4a,5,7,8,8a-hexahydro-2H-pyrido[4,3-b][1,4]oxazin-4-yl]pyridazin-3-yl]-3-methyl-phenol]
